{
  "source": "patent US20120009152A1",
  "about": "“NITRIC OXIDE DONORS FOR TREATMENT OF DISEASE AND INJURY” (priority 2002, published 2012)",
  "key": {"[1]": {"test_system": "rats subjected to embolic MCA occlusion", "test": "Infarct volume after embolic MCA occlusion, SNAP study", "assay_type": "in vivo, rat", "conditions": "SNAP 30 μg/kg iv bolus then 300 μg/kg/h for 60 minutes at 24 hours after MCA occlusion; 14 days; vs saline", "experimental": "(§1) The question arises as to the specificity of this NO agent for the induction of neurogenesis and functional benefit. Are the effects specific for DETA/NONOate or would other agents that donate NO likewise provide functional benefit? To test this question, rats were treated with another NO donor, S-nitroso-N-acetylpenicillamine (SNAP, Sigma) that is structurally different from DETA/NONOate. Young, male adult Wistar rats were subjected to embolic MCA occlusion (Zhang et al., 1997). SNAP at a dose of 30 μg/kg was intravenously administered to rats as a bolus followed by 300 μg/kg/h infusion for 60 minutes at 24 hours after embolic MCA occlusion. As functional outcome measures, the rotarod test which assesses motor function such as coordination and balance (Zhang et al., 2000), the adhesive removal test which measures forelimb somato-sensorimotor asymmetries (Schallert et al., 2000), and animal body weight were measured prior to treatment and at 2, 4, 7, and 14 days after treatment. Animals were sacrificed at 14 days after stroke and the infarct volume was measured (Zhang, et al., 1997). […] These benefits persisted to the time of sacrifice at 14 days post stroke. […] Thus, the effect of the treatment is one of restorative therapy not neuroprotective therapy. […] Functional improvement in these animals is associated with change and remodeling of brain. […]"}, "[2]": {"test_system": "rats subjected to embolic MCA occlusion", "test": "Rotarod test after embolic MCA occlusion, SNAP study", "assay_type": "in vivo, rat", "conditions": "SNAP at 24 hours after MCA occlusion; by 4 days after stroke, persisted to 14 days", "experimental": "as §1"}, "[3]": {"test_system": "rats subjected to embolic MCA occlusion", "test": "Adhesive removal test after embolic MCA occlusion, SNAP study", "assay_type": "in vivo, rat", "conditions": "SNAP at 24 hours after MCA occlusion; by 4 days after stroke, persisted to 14 days", "experimental": "as §1"}, "[4]": {"test": "Animal body weight after embolic MCA occlusion, SNAP study", "assay_type": "in vivo, rat", "conditions": "SNAP at 24 hours after MCA occlusion; 7 days after stroke; vs saline", "experimental": "as §1"}, "[5]": {"test_system": "Mouse brain-derived endothelial cells", "test": "Capillary-like tube formation assay", "assay_type": "cell-based", "experimental": "An in vitro angiogenesis assay was performed. Briefly, 0.8 ml of growth factor reduced Matrigel (Becton Dickinson) was added to pre-chilled 35 mm culture dishes and allowed to polymerize at 37° C. for 2 to 5 hours. […] For quantitative measurements of capillary tube formation, three random areas of Matrigel dishes were imaged and the length of continuous cords of three or more cells was measured."}, "cGMP": {"test_system": "cGMP", "conditions": "local administration to rat brain slices; cited from earlier work"}, "basilar artery": {"test_system": "basilar artery", "conditions": "rats; cited from earlier work"}, "dog cerebral arteries": {"test_system": "dog cerebral arteries", "conditions": "cited from earlier work"}},
  "data": [
    {"molecule": "CC(=O)N[C@H](C(=O)O)C(C)(C)SN=O", "note": "(racemic) [SNAP, S-nitroso-N-acetylpenicillamine]", "values": [
      {"measurement": "volume of cerebral infarction", "setting": "[1]", "value": "no significant difference"},
      {"measurement": "function measured with the rotarod", "setting": "[2]", "value": "significant improvement"},
      {"measurement": "function measured with the adhesive removal test", "setting": "[3]", "value": "significant improvement"},
      {"measurement": "Animal body weight", "setting": "[4]", "value": "significantly increased"}
    ]},
    {"molecule": "O=c1onc2cnc3ccccc3n12", "note": "[ODQ, 1H-[1,2,4]oxadiazolo[4,3-a]quinoxaline-1-one]", "values": [
      {"measurement": "inhibition of DETANONOate-induced capillary-like tube formation", "setting": "[5]; DETANONOate in the presence of ODQ", "value": "completely inhibited"},
      {"measurement": "inhibition of 8-BrcGMP-induced capillary-like tube formation", "setting": "[5]; ODQ", "value": "did not significantly inhibit"},
      {"measurement": "inhibition of Sildenafil-induced capillary-like tube formation", "setting": "[5]; ODQ 10 μM, Sildenafil 300 nM", "value": "significantly inhibited"}
    ]},
    {"molecule": "CCCOc1ccccc1-c1nc2nn[nH]c2c(=O)[nH]1", "note": "[zaprinast]", "values": [
      {"measurement": "cGMP release", "setting": "cGMP", "value": "increase of cGMP release"},
      {"measurement": "dilatation of the basilar artery", "setting": "basilar artery", "value": "elicits dilatation of the basilar artery"},
      {"measurement": "dilatation of cerebral arteries", "setting": "dog cerebral arteries", "value": "produces dilatation of dog cerebral arteries"}
    ]},
    {"molecule": "Nc1nc2c(nc(Br)n2[C@@H]2O[C@@H]3COP(=O)(O)O[C@H]3[C@H]2O)c(=O)[nH]1", "note": "[8-BrcGMP, 8-Br-cGMP]", "values": [
      {"measurement": "capillary-like tube formation", "setting": "[5]; 8-BrcGMP 1 mM", "value": "significantly (p<0.05) increased"}
    ]}
  ]
}
